Measured values: ChEMBL document CHEMBL3784927, “Serum azathioprine and 6-mercaptopurine levels and immunosuppressive activity after azathioprine in uremic patients” (Int J Immunopharmacol, 1986)

Key:
[1] = Cmax in uremic patient (15 patients) at 100 mg, iv by gas chromatography-mass spectrometry with multiple detection method; settings: human, in vivo
[2] = Tmax in uremic patient (15 patients) at 100 mg, iv by gas chromatography-mass spectrometry with multiple detection method; settings: human, in vivo
[3] = Primary phase half life in uremic patient (13 patients) at 100 mg, iv by gas chromatography-mass spectrometry with multiple detection method; settings: human, in vivo
[4] = Terminal phase half life in uremic patient (15 patients) at 100 mg, iv by gas chromatography-mass spectrometry with multiple detection method; settings: human, in vivo
[5] = AUC (0 to infinity) in uremic patient (15 patients) at 100 mg, iv by gas chromatography-mass spectrometry with multiple detection method; settings: human, in vivo
[6] = Total clearance in uremic patient (15 patients) at 100 mg, iv by gas chromatography-mass spectrometry with multiple detection method; settings: human, in vivo
[7] = Volume of distribution in uremic patient (15 patients) at 100 mg, iv by gas chromatography-mass spectrometry with multiple detection method; settings: human, in vivo
[8] = Cmax in uremic patient (8 patients) at 100 mg, po by gas chromatography-mass spectrometry with multiple detection method; settings: human, in vivo
[9] = Tmax in uremic patient (8 patients) at 100 mg, po by gas chromatography-mass spectrometry with multiple detection method; settings: human, in vivo
[10] = AUC (0 to infinity) in uremic patient (7 patients) at 100 mg, po by gas chromatography-mass spectrometry with multiple detection method; settings: human, in vivo
[11] = Half life in human with good renal function; settings: in vivo
[12] = Clearance in kidney transplant patient; settings: human, in vivo

For `Cn1cnc([N+](=O)[O-])c1Sc1ncnc2nc[nH]c12` [AZATHIOPRINE], the Cmax [1] was 3140 nM, the Tmax [2] was 5 min and the half-life [3] was 6.05 min. The half-life [4] was 49.5 min, the AUC(0-inf) [5] was 1.04 µM·h and the clearance [6] was 6920 mL/min. For the same molecule, the Vd [7] was 438 L, the Cmax [8] was 180 nM and the Tmax [9] was 15 min. The AUC(0-inf) [10] was 0.164 µM·h, the half-life [11] was 10 min and the clearance [12] was 57 mL/min/kg.
